Here are results for 2 compounds from patent US20130266636A1, “METHODS FOR BLOCKING CELL PROLIFERATION AND TREATING DISEASES AND CONDITIONS RESPONSIVE TO CELL GROWTH INHIBITION” (THE REGENTS OF THE UNIVERSITY OF CALIFORNIA, priority 2010, published 2013).

Assay [1] concerns human breast (MDA-MB-231) carcinoma cell line. Nature of the assay: Cell viability assay in MDA-MB-231 cells. The class given is cell-based.
For assay [2], the target named is T1, CRAF (Homo sapiens, UniProt P04049). As to the kind of experiment: Phospho-S338 CRAF immunoblot in XPA-1 cells. The class given is cell-based. Further details: total CRAF and total MEK of lysates from XPA-1 cells treated with PD0325901, Sorafenib, L-779450, PLX4720, KG5 or KG1; endogenous in cells; host or cells: XPA-1. The method, then: (§1) FIGS. 6 and 7 illustrate immunoblot analysis of CRAF immunoprecipitated from XPA-1 cells treated with KG5 and KG38.
FIG. 13 illustrates immunoblot analysis of phospho-5338 CRAF, phospho-MEK, total CRAF and total MEK of lysates from XPA-1 cells treated with PD0325901, Sorafenib, L-779450, PLX4720, KG5 or KG1.
(§2) Immunoprecipitation and Immunoblot Analysis Cells were lysed in either NP40 lysis buffer (150 mM NaCl, 50 mM Tris Base pH 7.4, 1% NP40) or RIPA buffer (50 mM Tris pH 7.4, 100 mM NaCl, 0.1% SDS) supplemented with complete protease inhibitor mixture (Roche), 50 mM NaF and 1 mM Na3VO4 and centrifuged at 13,000×g for 10 min at 4° C. Protein concentration was determined by BCA assay. […] of protein were immunoprecipitated with […] of anti-Flag (Sigma), anti-CRAF (BD Pharmingen), anti-Plk1 (Abcam), anti-γ-Tubulin (sigma) or anti-cenpF (Santa Cruz) antibodies overnight at 4° C. followed by capture with 25 μl of protein A/G (Pierce). Beads were washed five times, eluted in boiling Laemmli buffer, resolved on 10% SDS-PAGE and immunoblotting was performed with anti-Plk1 antibody (Abcam), anti-CRAF antibody (BD Pharmingen), anti-Aurora A (Abcam), anti-phospho-S338 CRAF (Cell Signaling), anti-phospho-T210 Plk1 or anti-phospho-T288 Aurora A (Cell signaling) diluted 1:1000. For immunoblot analysis, […] of protein was boiled in […]
Target sequence in this assay (P04049 whole entry): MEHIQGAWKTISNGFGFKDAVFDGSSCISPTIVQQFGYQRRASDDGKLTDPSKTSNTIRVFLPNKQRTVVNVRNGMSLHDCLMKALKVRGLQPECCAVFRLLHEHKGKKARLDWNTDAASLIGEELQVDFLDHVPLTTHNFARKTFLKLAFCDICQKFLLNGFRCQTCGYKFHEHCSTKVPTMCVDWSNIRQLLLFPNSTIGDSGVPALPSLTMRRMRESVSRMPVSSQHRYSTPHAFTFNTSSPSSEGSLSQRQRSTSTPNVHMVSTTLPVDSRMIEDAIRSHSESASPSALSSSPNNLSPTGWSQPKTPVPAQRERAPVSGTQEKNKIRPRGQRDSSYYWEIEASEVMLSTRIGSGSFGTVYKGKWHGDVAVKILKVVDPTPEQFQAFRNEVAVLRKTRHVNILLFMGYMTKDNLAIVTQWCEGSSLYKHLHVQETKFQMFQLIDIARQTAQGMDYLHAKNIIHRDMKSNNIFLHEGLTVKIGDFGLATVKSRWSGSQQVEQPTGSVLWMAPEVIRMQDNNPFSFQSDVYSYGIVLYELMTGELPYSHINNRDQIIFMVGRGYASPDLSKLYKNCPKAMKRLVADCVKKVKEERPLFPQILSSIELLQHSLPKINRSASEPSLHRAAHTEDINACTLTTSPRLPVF
In general terms: Immunoblotting shows a protein as a band on a membrane.

Assay [3] addresses RAF dimerization (BRAF and CRAF) (Homo sapiens, UniProt P04049). As to the kind of experiment: RAF dimerization, immunoblot of BRAF and CRAF immunoprecipitates from XPA-1 cells. It counts as cell-based. Also on record: immunoblot analysis of BRAF and CRAF immunoprecipitates from XPA-1 cells; endogenous in cells; host or cells: XPA-1. The protocol:
as §1
FIG. 14 illustrates immunoblot analysis of BRAF and CRAF immunoprecipitates from XPA-1 cells treated with PD0325901, Sorafenib, L-779450, PLX4720, KG5 or KG1.
as §2

Assay [4] concerns human lung (A549) carcinoma cell line. As to the kind of experiment: Cell viability assay in A549 cells. The class given is cell-based.
Assay [5] deals with human breast (T47D) carcinoma cell line. Nature of the assay: Cell viability assay in T47D cells. It counts as cell-based.
Assay [6] addresses T1, CRAF. The settings on record: 293H cells overexpressing catC, indicated amounts for 1 h; cited from earlier work.
Target sequence in this assay (P04049 305-648 limits assumed, species assumed): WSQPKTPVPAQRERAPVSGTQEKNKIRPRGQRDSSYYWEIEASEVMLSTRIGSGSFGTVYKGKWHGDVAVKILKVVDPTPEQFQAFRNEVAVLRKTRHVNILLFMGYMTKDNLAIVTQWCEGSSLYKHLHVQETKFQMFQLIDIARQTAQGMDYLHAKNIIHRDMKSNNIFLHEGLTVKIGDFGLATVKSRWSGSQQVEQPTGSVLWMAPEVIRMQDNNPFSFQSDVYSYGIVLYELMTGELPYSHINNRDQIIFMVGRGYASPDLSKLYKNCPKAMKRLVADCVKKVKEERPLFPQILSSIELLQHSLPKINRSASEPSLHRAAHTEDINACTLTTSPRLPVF
Another assay relates to A549 cells. Nature of the assay: Cell proliferation assay in A549 cells. The class given is cell-based, human.

Sequence of RAF dimerization (BRAF and CRAF) (P04049 whole entry): as the sequence (P04049 whole entry) above

As to `CSc1nc(N)cc(Oc2ccc(-c3cnc(Nc4cccc(C(F)(F)F)c4)[nH]3)cc2)n1` [K38-B], the cell viability entry in assay [1] (MDA-MB-231), in assay [4] (A549) and in assay [5] (T47D) was “decrease cell viability” each time. In addition, the “potency relative to KG5 (cell viability EC50s)” value in assay [1] (MDA-MB-231), in assay [4] (A549) and in assay [5] (T47D) was “more potent than KG5” throughout. Moreover, the EC50 entry in assay [1] (MDA-MB-231 breast cancer cell viability assays), in assay [4] (A549 lung cancer cells) and in assay [5] (T47D breast cancer cells) was “approach picomolar (pM) EC50s” each time. Besides, the “serine 338 phosphorylation on CRAF” value at CRAF [2] is “prevent”. Also, the RAF dimerization result in assay [3] is given as “prevent RAF dimerization”.
For the compound `CCCS(=O)(=O)Nc1ccc(F)c(C(=O)c2c[nH]c3ncc(Cl)cc23)c1F` [PLX4720], the “phosphorylation at S338 (pS338-CRAF immunoblot)” value at CRAF [6] was “steadily increased”. Also, the cell proliferation entry with A549 cells was “induce proliferation”.
